The record followed here is patent US20090149417A1, “Methods and compositions for the treatment of cancer using benzopyrone-type PARP inhibitors” (priority 2007, published 2009).

Holding throughout (format): cell-based, human
Test [1] concerns Colo375FG metastatic pancreatic adenocarcinoma cells. Nature of the test: TUNEL apoptosis assay (flow cytometry). The following applies: for Dead cells TUNEL (%): Compound IIIc 0 mM. On the procedure:
Cells are labeled for apoptosis with the “In Situ Cell Death Detection Kit, Fluorescein” (Roche Diagnostics Corporation, Roche Applied Science, Indianapolis, Ind.). Briefly, fixed cells are centrifuged and washed once in phosphate-buffered saline (PBS) containing 1% bovine serum albumin (BSA), then resuspended in 2 ml permeabilization buffer (0.1% Triton X-100 and 0.1% sodium citrate in PBS) for 25 min at room temperature and washed twice in 0.2 ml PBS/1% BSA. The cells are resuspended in 50 μl TUNEL reaction mixture (TdT enzyme and labeling solution) and incubated for 60 min at 37° C. in a humidified dark atmosphere in an incubator. The labeled cells are washed once in PBS/1% BSA, then resuspended in 0.5 ml ice-cold PBS containing 1 μg/ml 4′,6-diamidino-2-phenylindole (DAPI) for at least 30 min. All cell samples are analyzed with a BD LSR II (BD Biosciences, San Jose, Calif.).
The cells are labeled for apoptosis with the “In Situ Cell Death Detection Kit, Fluorescein” (Roche Diagnostics Corporation, Roche Applied Science, Indianapolis, Ind.). Briefly, fixed cells are centrifuged and washed once in phosphate-buffered saline (PBS) containing 1% bovine serum albumin (BSA), then resuspended in 2 ml permeabilization buffer (0.1% Triton X-100 and 0.1% sodium citrate in PBS) for 25 minutes at room temperature and washed twice in 0.2 ml PBS/1% BSA. The cells are resuspended in 50 μl TUNEL reaction mixture (TdT enzyme and labeling solution) and incubated for 60 min at 37° C. in a humidified dark atmosphere in an incubator. The labeled cells are washed once in PBS/1% BSA, then resuspended in 0.5 ml ice-cold PBS containing 1 μg/ml 4,6-diamidino-2-phenylindole (DAPI) for at least 30 min. All cell samples are analyzed with a BD LSR II (BD Biosciences, San Jose, Calif.).

Test [2] has as its system MDA-MB-231. The test can be described thus: BrdU chemiluminescent cell proliferation assay. The following applies: for IC50: Homo sapiens, MDA-MB-231, 72 h, 72 hour treatment. On the procedure:
(§1) Test Agents—Cells are treated 24 hours after plating (Day 1) with vehicle or test agents at concentrations of 0.1 μM, 0.3 μM, 1 μM, 3 μM, 10 μM, 30 μM and 100 μM.
(§2) Tumor Cell Lines—Tumor cell lines (Table 1) are obtained from the American Type Cell Collection (ATCC, Rockville, Md.) or NCI-DCTD Tumor Repository (Bethesda, Md.) and maintained in proper growth media supplemented with 10% fetal bovine serum (FBS, NovaTech), and are maintained in specified growth media. Cells are propagated at 37° C. in a humidified atmosphere containing 5% carbon dioxide.
(§3) Cell proliferation assay—Cell proliferation is determined using BrdU chemiluminescent assay, which measures incorporation of 5-bromo-2′-deoxyuridine (BrdU) into the genomic DNA of proliferating cells. Briefly, cells are added with BrdU for 4 hours, during which time it incorporates into the DNA of dividing cells in place of thymidine. Following labeling, cells are fixed and DNA denatured in one step by adding a FixDenat® denaturizing solution. After removing FixDenat, an anti-BrdU-peroxidase conjugated antibody is added, which binds to BrdU incorporated into newly-synthesized cellular DNA. Following antibody incubation, cells are washed 3 times with PBS and subjected to luminescent analysis. The reaction product is quantified by measuring light emission using a scanning multi-well luminometer (luminescence ELISA reader.)
(§4) Experimental Design—Tumor cells (Table 1) are grown to 70% confluency, trypsinized, counted and seeded in 96 well flat-bottom plates at final concentrations of 7.5×103-3×10^4 cells/well (Day 0); treatment with IIIg begins on Day 1 and continues for 68 hours (Table 2). Doses for both compounds range between […] and 100 μM. At the 68 hour time point, viable cell number is measured by BrdU assay as described above. Experiments are repeated at least twice at the same doses to determine inhibition of cell proliferation. Results from these studies are used to calculate an IC50 value (drug concentration that results in half-maximal response) for IIIg in each line.
(§5) For single studies, data from each experiment is collected and expressed as % Inhibition of Cell Proliferation (% ICP) using the following calculation.
(§6) % ICP=100%×[(1−(RLUtest/RLUvehicle)]
(§7) Where RLUtest is the relative light unit of the tested sample, and RLUvehicle is the relative light unit of the vehicle in which the drug is dissolved. An IC50 value is calculated from % ICP (PRISM® GraphPad software) using the formula:
(§8) y=min+(max−min)/(1+10^(Log(IC50)−x)×Hillslope)
(§9) Where (x) is the logarithm of agonist concentration, (y) is the response, and (min) and (max) are the variable lower and upper plateaus, respectively. The variable Hillslope characterizes the slope of the curve at its midpoint. The IC50 is the drug concentration for y halfway between min and max.

For test [3], the system named is MX-1. Nature of the test: BrdU chemiluminescent cell proliferation assay. The following applies: for IC50: Homo sapiens, MX1, 72 hour treatment. The procedure: as §1, §2, §3, §4, §5, §6, §7, §8, §9
Test [4] deals with NIH: OVCAR-3. Nature of the test: BrdU chemiluminescent cell proliferation assay. The following applies: for IC50: Homo sapiens, OVCAR-3, 72 h, 72 hour treatment. The procedure: as §1, §2, §3, §4, §5, §6, §7, §8, §9
Test [5] has as its system PANC-1. Nature of the test: BrdU chemiluminescent cell proliferation assay. The settings on record: for IC50: Homo sapiens, PANC-1, 72 h, 72 hour treatment. The procedure:
as §1, §2, §3, §4, §5, §6, §7, §8, §9

The test system of test [6] is PC-3. Nature of the test: BrdU chemiluminescent cell proliferation assay. The following applies: for IC50: Homo sapiens, PC-3, 72 h, 72 hour treatment. The procedure:
as §1, §2, §3, §4, §5, §6, §7, §8, §9

Test [7] concerns COLO357FG and MiaPaCa-2. Nature of the test: Combination with oxaliplatin, BrdU proliferation, Chou and Talalay's method. The settings on record: combination of IIIg with oxaliplatin. On the procedure: This example provides the assessment of IIIg in combination with an anti-tumor agent, oxaliplatin, on the proliferation of two human pancreatic tumor cell lines, COLO357FG and MiaPaCa-2, in vitro. Cell proliferation is measured by BrdU incorporation as described in detail hereinabove. The experiments are performed according to Chou and Talalay's method (Chou T C, Talalay P. Quantitative analysis of dose-effect relationships: the combined effects of multiple drugs or enzyme inhibitors. Adv Enzyme Regul 1984, 22: 27-55).

[8] abbreviates: mean of Exp1 and Exp2, read-out: Mean IC50.

Several values for one entry are separate records, joined by “and”; a condition that tells them apart may be missing. Equal entries are not always repeated. Where two headings read alike, the source gives them in different places.

As for `O=C1[O][Pt]2([NH][C@@H]3CCCC[C@H]3[NH]2)[O]C1=O` [OxaliPt, oxaliplatin, reference compound], the “Dead cells TUNEL (%)” value in test [1] (OxaliPt 10 mM) is given as 21.0%; in test [1] (OxaliPt 20 mM), 48.3%. Besides, the “TUNEL (%)” value in test [1] (IIIg 0 μM, OxaliPt 10 μM) is 21%; in test [1] (IIIg 0 μM, OxaliPt 20 μM), 48.3%.
As to `O=c1ccc2c(I)c([N+](=O)[O-])ccc2o1` [IIIg, 5-iodo-6-nitro-benzopyrone], the IC50 came to 24 µM in test [2] (Exp1, read-out: IC50); 24.3 µM in test [2] (Exp2, read-out: IC50); 24.2 µM in test [2] (setting [8]); 27 µM in test [3] (Exp2, read-out: IC50); 27 µM in test [3] (setting [8]); 30.4 µM in test [4] (Exp1, read-out: IC50). The IC50 was 29.6 µM in test [4] (Exp2, read-out: IC50); 30 µM in test [4] (setting [8]); 22 µM in test [5] (Exp1, read-out: IC50); 27 µM in test [5] (Exp2, read-out: IC50); 24.5 µM in test [5] (setting [8]); 22 µM in test [6] (Exp1, read-out: IC50). Moreover, the IC50 was determined as 25.3 µM in test [6] (Exp2, read-out: IC50) and 23.7 µM in test [6] (setting [8]). The “Mean Maximum % Response” value in test [2] (Max Concentration 100 μM) turned out to be 99%; in test [3] (Max Concentration 100 μM), 99%; in test [4] (Max Concentration 100 μM), 98%; in test [5] (Max Concentration 100 μM), 99%; in test [6] (Max Concentration 100 μM) it was 100%. For the same molecule, the “TUNEL (%)” value in test [1] (IIIg 2.5 μM, OxaliPt 0 μM) was 3.3% and 2.5%; in test [1] (combination: IIIg 2.5 μM + OxaliPt 10 μM), 19%; in test [1] (combination: IIIg 2.5 μM + OxaliPt 20 μM), 42%; in test [1] (combination: IIIg 12.5 μM + OxaliPt 10 μM) it was 57.3%; in test [1] (combination: IIIg 12.5 μM + OxaliPt 20 μM), 85.7%; in test [1] (combination: IIIg 25 μM + OxaliPt 10 μM) it was 89.5%. The “TUNEL (%)” value in test [1] (combination: IIIg 25 μM + OxaliPt 20 μM) stood at 94.2%. Besides, in test [7], the “Synergy with oxaliplatin on proliferation” value is on record as “synergizes with oxaliplatin”.
